Reference: patent US12139461B1, “Piperidine compounds as PDE5 inhibitors” (KING SAUD UNIVERSITY, priority 2024, dated 2024)
“And” between values parts separate entries of the source, which are not always exact repeats. Equal values may be shown once. One block for each molecule: values may come before it.

How the values were obtained:
[1] = biological target: Phosphodiesterase type 5 (PDE5) (Homo sapiens (Human), UniProt O76074); test: In vitro phosphodiesterase type 5 (PDE5) inhibition assay; assay type: biochemical; details: purified PDE5, IMAP FP assay
male rats = test: Copulatory behavior testing; assay type: in vivo, rat; details: 5 mg/kg oral; for mean intromission interval (MII): MII=EL/IF
Protocol: Sexually mature Wistar albino male and female rats weighing 150-180 g (10-14 weeks old) were used in our study. Males were trained for sexual behavior with estrus females, that is, two hours a day for one week, before the investigations. Females were brought into the estrous phase artificially by sequential injection of estradiol benzoate (Sigma) (25 μg/animal) and progesterone (Sigma) (250 μg/animal) subcutaneously, 48 and 4 hours before pairing, respectively. Only those sexually active animals were used subsequently in the study. Sexually active rats were isolated and housed in separate cages at room temperature (24±2° C.) on a reversed day/night cycle with a relative humidity of 50-55% during the experimental period. All sexual studies were performed in a calm laboratory condition under subdued light. For the toxicity study, adult Wistar albino male rats were used separately. Rats were obtained from the Experimental Animal Care Center, College of Pharmacy, King Saud University. Animals were fed with a standard pellet diet and provided water ad libitum. All experiments were performed per the protocols and recommendations of the NIH Guide for the Care and Use of Laboratory Animals and the legal requirements of King Saud University for investigations on humans and animals.
Based on a preliminary study to select the appropriate dose for the promising synthesized compounds, the compounds were administered separately to sexually experienced male rats by oral gavage at 5 mg/kg in a 0.5% sodium carboxymethyl cellulose (CMC) vehicle. […] All solutions were freshly prepared at a concentration that allowed the administration of 1 ml/kg.
After drug treatment, rats were housed separately in transparent cages for acclimation. Thirty minutes after drug treatment, a sexually receptive female rat with estrous phase was introduced in each cage for 30 min and the following parameters of the copulatory behavior were recorded: namely mount latency (ML; time from introduction of the female until the first mount with or without penile insertion, it measures the degree of arousal or sexual interest or libido of the male), mount frequency (MF; the number of mounts until ejaculation, it is a measure of the degree of the male's sexual interest or libido), intromission latency (IL; time from introduction of the female until the first intromission, it measures the degree of sexual excitement and erection), intromission frequency (IF; number of vaginal penetrations until ejaculation, it measures the degree of erection), ejaculation latency (EL; time from the first intromission until ejaculation, it determines the excellent organization of copulation in rats) and post-ejaculatory interval (PEI; time interval between an ejaculation and the following first mount, it measures the refractory period that comes after ejaculation). Latency values represent the number of seconds that elapses from the introduction of the female into the copulatory arena until the male executes the first mount, intromission or ejaculation. Frequency values represent the number of ejaculations, mounts or intromission recorded during the copulatory test.
Depending on these parameters, the following can be calculated: Copulatory efficiency (CE)=(IF/MF)×100 and mean intromission interval (MII)=EL/IF as previously described (Aydogan F. et al., J Ethnopharmacol 257 (2020) 112868; Besong E B. et al., Biochem Res Int 2018 (2018) 2869727, the contents of each of which are hereby incorporated by reference in their entirety). Experiments were repeated blindly three times using new fresh (unused) animals in each experiment.

[2] = test system: sexually experienced male rats; test: Penile erection index (noncontact erection test); assay type: in vivo, rat; details: Rattus norvegicus, oral, linear regression of proportion of responding rats, read-out: effective dose ED50 (dose required to give 50% responding rats)
Protocol: The penile erection index is an established means of determining the erection promoting properties of a substance. Determination of penile erection in a noncontact position was calculated as reported previously (Haripriya V M. et al., Andrologia 51 (2019) e13180; Sharma V. et al., J Ethnopharmacol 143 (2012) 201-206, the contents of each of which are hereby incorporated by reference in their entirety). The sexually experienced male rats of all groups were given the treatment 30 minutes before experimentation. The number of animals for each dose was ten rats in each experiment. […] The results shown are the average of three separate experiments. Control animals were given 0.5% CMC as a vehicle.
The rats of each group were placed in the observation cages (five at a time) divided into half by two sheets of metal mesh, preventing contact but allowing auditory, visual and olfactory stimuli. After a 5-min adaptation period, the test was started by placing an estrus female on the other side of the cage. Penile erection was recorded when the rats bent down to lick their erect penis. Homosexual mounting was also counted when a male rat mounted another male rat performing pelvic thrusts with or without a penile erection. […] The effective dose ED50 (the dose required to give 50% responding rats) for examined compounds was calculated using linear regression analysis by GraphPad software with the proportion of responding rats as the input data and expressed as μmol/kg.

IC50 [1]: 0.106 ± 0.00207 µM
melting point: 191 to 193 °C
Structure (SMILES): COc1ccc(S(=O)(=O)N2CCC(c3ccccc3)CC2)c(OC)c1 [Compound C1, 1-((2,4-Dimethoxyphenyl)sulfonyl)-4-phenylpiperidine]

IC50 [1]: 0.185 ± 0.00361 µM
melting point: 207 to 209 °C
Structure (SMILES): COc1ccc(S(=O)(=O)N2CCC(c3ccccc3)CC2)cc1OC [Compound C2, 1-((3,4-Dimethoxyphenyl)sulfonyl)-4-phenylpiperidine]

IC50 [1]: 0.0852 ± 0.00166 µM
melting point: 173 to 175 °C
Structure (SMILES): COc1ccccc1S(=O)(=O)N1CCC(c2ccccc2)CC1 [Compound C3, 1-((2-Methoxyphenyl)sulfonyl)-4-phenylpiperidine]

IC50 [1]: 0.675 ± 0.0132 µM
Structure (SMILES): O=S(=O)(c1ccc(Cl)cc1)N1CCC(c2ccccc2)CC1 [Compound C5]

IC50 [1]: 0.296 ± 0.00577 µM
melting point: 157 to 159 °C
Structure (SMILES): Cc1cc(C)c(S(=O)(=O)N2CCC(c3ccccc3)CC2)c(C)c1 [Compound C6, 1-(Mesitylsulfonyl)-4-phenylpiperidine]

IC50 [1]: 0.52 ± 0.0101 µM
Structure (SMILES): CC(C)c1cc(C(C)C)c(S(=O)(=O)N2CCC(c3ccccc3)CC2)c(C(C)C)c1 [Compound C7, 1-((2,4,6-tri-isiopropylphenyl)sulfonyl)-4-phenylpiperidine]

IC50 [1]: 0.0542 ± 0.00106 µM
Structure (SMILES): O=S(=O)(c1ccccc1)N1CCC(c2ccccc2)CC1 [Compound C8]

IC50 [1]: 0.133 ± 0.00259 µM
Structure (SMILES): Cc1ccc(S(=O)(=O)N2CCC(c3ccccc3)CC2)cc1 [Compound C10]

IC50 [1]: 0.874 ± 0.0171 µM
Structure (SMILES): CC(C(=O)Nc1ccc(S(N)(=O)=O)cc1)N1CCC(Cc2ccccc2)CC1 (stereo not shown) [Compound C12, 2-(4-Benzylpiperidin-1-yl)-N-(4-sulfamoylphenyl)-2-methylacetamide]

IC50 [1]: 0.221 ± 0.00432 µM
Structure (SMILES): NS(=O)(=O)c1ccc(NC(=O)CN2CCC(Cc3ccccc3)CC2)cc1 [Compound C13, 2-(4-Benzylpiperidin-1-yl)-N-(4-sulfamoylphenyl)acetamide]

IC50 [1]: 0.184 ± 0.0036 µM
melting point: 61 to 63 °C
Structure (SMILES): COc1ccc(NC(=O)CN2CCC(Cc3ccccc3)CC2)cc1 [Compound C15, 2-(4-Benzylpiperidin-1-yl)-N-(4-methoxyphenyl)acetamide]

IC50 [1]: 0.484 ± 0.00944 µM
melting point: 72 to 74 °C
Structure (SMILES): O=C(CN1CCC(Cc2ccccc2)CC1)NCc1ccc(F)cc1 [Compound C16, 2-(4-Benzylpiperidin-1-yl)-N-(4-fluorobenzyl)acetamide]

IC50 [1]: 0.279 ± 0.00543 µM
Structure (SMILES): CC(C(=O)Nc1ccc(F)cc1)N1CCC(Cc2ccccc2)CC1 (stereo not shown) [Compound C17]

IC50 [1]: 0.112 ± 0.00219 µM
Structure (SMILES): O=S(=O)(c1ccccc1)N1CCC(Cc2ccccc2)CC1 [Compound C18]

IC50 [1]: 0.102 ± 0.00199 µM
melting point: 166 to 168 °C
Structure (SMILES): O=S(=O)(c1ccc(Cl)c(Cl)c1)N1CCC(Cc2ccccc2)CC1 [Compound C19, 4-Benzyl-1-((3,4-dichlorophenyl)sulfonyl)piperidine]

IC50 [1]: 0.0633 µM
Structure (SMILES): COc1ccc(S(=O)(=O)N2CCC(Cc3ccccc3)CC2)cc1OC [Compound C20]
ML, IL, IF, MF and EL compared to untreated controls (male rats): not significantly different
ejaculation latency (EL) (male rats): prolonged
intromission frequency (IF) (male rats): 7.6
intromission latency (IL) (male rats): 229.1 s
mount frequency (MF) (male rats): 16.0
mount latency (ML) (male rats): 95.5 s
post-ejaculatory interval (PEI) (male rats): 401.8 s
copulatory efficiency (CE) (male rats; CE=(IF/MF)x100): did not alter
copulatory efficiency (CE) (male rats; CE=(IF/MF)x100, listed as C 20): 48.5%
mean intromission interval (MII) (male rats): did not alter
mean intromission interval (MII) (male rats; listed as C 20): 44.7
ejaculation latency (EL) (male rats; listed as C 20): 325.1 s

IC50 [1]: 0.207 ± 0.00403 µM
melting point: 95 to 97 °C
Structure (SMILES): COc1ccccc1S(=O)(=O)N1CCC(Cc2ccccc2)CC1 [Compound C23, 4-Benzyl-1-((2-methoxyphenyl)sulfonyl)piperidine]

IC50 [1]: 0.0563 µM and 0.0564 µM
Structure (SMILES): COc1ccc(S(=O)(=O)N2CCC(Cc3ccccc3)CC2)c(OC)c1 [Compound C24, 1-((2,4-Dimethoxyphenyl)sulfonyl)-4-Benzylpiperidine]
efficacy in improving copulatory behavior (male rats): more pronounced
ejaculation latency (EL) (male rats): 377.6 s
intromission frequency (IF) (male rats): 9.3
intromission latency (IL) (male rats): 193.8 s
mount frequency (MF) (male rats): 17.3
mount latency (ML) (male rats): 85.0 s
post-ejaculatory interval (PEI) (male rats): 370.0 s
copulatory efficiency (CE) (male rats; CE=(IF/MF)x100): 54.0%
mean intromission interval (MII) (male rats): 41.2

IC50 [1]: 0.107 ± 0.00209 µM
melting point: 70 to 72 °C
Structure (SMILES): Cc1cc(C)c(S(=O)(=O)N2CCC(Cc3ccccc3)CC2)c(C)c1 [Compound C26, 4-Benzyl-1-(mesitylsulfonyl)piperidine]

IC50 [1]: 0.143 ± 0.00278 µM
Structure (SMILES): CC(C)c1cc(C(C)C)c(S(=O)(=O)N2CCC(Cc3ccccc3)CC2)c(C(C)C)c1 [Compound C27, 1-((2,4,6-Tri-isopropylphenyl)sulfonyl)-4-Benzylpiperidine]

IC50 [1]: 0.0565 µM
Structure (SMILES): Cc1ccc(S(=O)(=O)N2CCC(Cc3ccccc3)CC2)cc1 [Compound C28]
efficacy in improving copulatory behavior (male rats): more pronounced
ejaculation latency (EL) (male rats): 332.8 s
intromission frequency (IF) (male rats): 9.1
intromission latency (IL) (male rats): 195.5 s
mount frequency (MF) (male rats): 17.5
mount latency (ML) (male rats): 94.6 s
post-ejaculatory interval (PEI) (male rats): 393.3 s
copulatory efficiency (CE) (male rats; CE=(IF/MF)x100): 52.3%
mean intromission interval (MII) (male rats): 36.6

IC50 [1]: 0.25 ± 0.00488 µM
Structure (SMILES): O=S(=O)(c1ccc(Cl)cc1)N1CCC(Cc2ccccc2)CC1 [Compound C29]

IC50 [1]: 0.059 µM
Structure (SMILES): O=C(CN1CCC(Cc2ccccc2)CC1)Nc1ccccc1 [Compound C30]
ML, IL, IF, MF and EL compared to untreated controls (male rats): not significantly different
ejaculation latency (EL) (male rats): 324.6 s
intromission frequency (IF) (male rats): 6.8
intromission latency (IL) (male rats): Weak but significant reductions
mount frequency (MF) (male rats): 14.8
mount latency (ML) (male rats): 95.5 s
post-ejaculatory interval (PEI) (male rats): 411.8 s
copulatory efficiency (CE) (male rats; CE=(IF/MF)x100): did not alter
copulatory efficiency (CE) (male rats; CE=(IF/MF)x100, listed as C 30): 46.8%
mean intromission interval (MII) (male rats): did not alter
mean intromission interval (MII) (male rats; listed as C 30): 49.2
intromission latency (IL) (male rats; listed as C 30): 215.3 s

IC50 [1]: 0.0749 ± 0.00146 µM
Structure (SMILES): O=C(CN1CCC(Cc2ccccc2)CC1)NCc1ccccc1 [Compound C31]

IC50 [1]: 0.203 ± 0.00395 µM
Structure (SMILES): O=C(CN1CCC(Cc2ccccc2)CC1)Nc1ccc(F)cc1 [Compound C32]

IC50 [1]: 0.0605 ± 0.00118 µM
Structure (SMILES): COc1cc(CNC(=O)CN2CCC(Cc3ccccc3)CC2)cc(OC)c1OC [Compound C34, 2-(4-Benzylpiperidin-1-yl)-N-(3,4,5-trimethoxybenzyl)acetamide]

Structure (SMILES): CCCc1nn(C)c2c(=O)[nH]c(-c3cc(S(=O)(=O)N4CCN(C)CC4)ccc3OCC)nc12 [sildenafil, reference compound]
ED50 [2]: 8.52 µmol/kg
ejaculation latency (EL) (male rats): 426.6 s
intromission frequency (IF) (male rats): 17.8
intromission latency (IL) (male rats): 135.1 s
mount frequency (MF) (male rats): 26.6
mount latency (ML) (male rats): 68.5 s
post-ejaculatory interval (PEI) (male rats): 294.5 s
mean intromission interval (MII) (male rats): 24.3
